How the values were obtained:
Assay type in all cases: cell-based, human
[1] = tested on: HeLa-control, HeLa-IG20 and HeLa-DENN-SV cells; assay: Colony formation after etoposide treatment (crystal violet)
Protocol: (§1) FIG. 9: Effects of IG20 and DENN-SV on survival and proliferation of cells treated with etoposide. (A) Cell survival after etoposide treatment. Cells were treated with the indicated doses of etoposide and allowed to grow in culture for 2 weeks and stained with crystal violet. (B) Enumeration of colonies after etoposide treatment. Three different experiments using the indicated doses of etoposide were used to determine the effects of the drug on HeLa-control, HeLa-IG20 and HeLa-DENN-SV cells. P values were <0.05 for all test groups. (C) Etoposide-Induced apoptosis. Cells treated with the indicated doses of etoposide were stained with Hoechst as described in Materials and Methods and evaluated for chromatin condensation under a microscope. P values were <0.05 for all test groups. (D) Cell Division after Etoposide Treatment. Cells were stained with CFDA and then subjected to 5 μM etoposide treatment for 5 days. Cells were then harvested and evaluated by FACS for CFDA staining intensity. Histograms show relative levels of CFDA dye retention. The peak on the left within each histogram represents cells that have undergone cell division, and therefore, partially lost CFDA staining, whereas the peak on the right represents undivided cells that retained maximum CFDA staining.
(§2) Cells were plated (10^5 cells/well) the day before treatment into 6 well plates. Cells were treated with etoposide for 24 hours or vinblastine for 1 hour at indicated concentrations. After treatment, cells were washed 3 times with PBS and then replenished with fresh media and incubated at 37° C. Two weeks later, cells were fixed in ice-cold methanol and stained with crystal violet for visualization.

[2] = tested on: HeLa-control, HeLa-IG20 and HeLa-DENN-SV cells; assay: Etoposide-induced apoptosis, Hoechst chromatin condensation
Protocol: as §1
Cells were stained in situ with 1 μg/ml of Hoechst 33342 (Sigma, St. Louis, Mo.) in DMEM for 10 minutes at 37° C. […]

[3] = tested on: HeLa-control, HeLa-IG20 and HeLa-DENN-SV cells; assay: Cell division after etoposide treatment, CFDA staining; conditions: 5 μM etoposide for 5 days
Protocol: as §1
1×10^5 Cells/100 mm^2 plate were stained with 2 μM CFDA (Molecular Probes, Eugene, Oreg.) in situ in 5 ml PBS/100 mm^2 for 10 minutes at 37° C. Cells were then washed 3 times and replenished with new media Cells were harvested 5 days later and analyzed by FACS.

HeLa IG20 cells = assay: TRAIL or TNF-α/cycloheximide induced apoptosis in HeLa IG20 cells (caspase activation, TMRE, Hoechst); conditions: 5 hours; TRAIL 100 ng/mL, or 10 ng/mL TNF-α and 10 μg/mL cycloheximide
Protocol: FIG. 13: IG20 transfected HeLa cells show increased apoptosis upon TRAIL treatment. HeLa-IG20 and control cells were treated for 5 hours with TRAIL at 100 ng/mL or with 10 ng/mL of TNF-α and 10 μg/mL of Cycloheximide and analyzed for apoptosis. A) Activation of caspases—cells were incubated for 10 minutes with FITC labeled general caspase inhibitor VAD FMK (Val-Ala-Asp-flouromethyl ketone) and analyzed by FACS. Numbers in the histogram indicate percentage of FITC positive cells. B) Mitochondrial Depolarization—Loss of the dye TMRE is indicative of mitochondrial depolarization and the numbers shown in the FACS histograms represent percentage of TMRE negative cells. All the above experiments were done in triplicates and results shown are representative histograms. […] D) Percentage of cells with condensed chromatin was calculated by counting 3 fields containing at least 200 cells each and error bars indicate mean±S.D.
Mitochondrial depolarization and chromatin condensation—2×10^5 HeLa IG20 and Vector control cells were plated into a 12-well culture dish and allowed to grow for 48 hours. […] Cells were assessed for loss of mitochondrial membrane potential by staining with tetramethylrhodamine ethyl ester (100 nm, Molecular Probes, Eugene, Oreg.) for 10 minutes, washed once with ice-cold PBS, collected and subjected to FACS analysis. […]

caspase-3 = assay: Caspase-3 activation in HeLa IG20 cells; conditions: 5 hours; TRAIL, or TNF-α and cycloheximide
Protocol: FIG. 15: IG20 Cells show increased specific activation of caspases upon TRAIL treatment A) Initiator caspases—Hela IG20 cells and control cells treated with TRAIL for 1H, were stained, with flourochrome-conjugated peptide inhibitors of specific active caspases as indicated, fixed and analyzed by FACS. B) Caspase-8 cleavage—IG20 HeLa cells and control cells were treated with TRAIL for either 1H or 3H, lysed and immunoblotted for the 10 kDa cleaved product of active caspase-8 using the 6B6 monoclonal antibody. […]
Caspase activation—To assess the general activation of caspases, cells were stained with FITC tagged caspase inhibitor Val-Ala-Asp-flouromethyl ketone Promega, Madison, Wis.) for 10 minutes at 37° C., washed and analyzed by FACS for percentage of FITC positive cells. The initiator caspases were analyzed by using carboxyflourescein labeled peptide flouromethlyketone inhibitors (FAM-peptide-FMK) directed against active caspase-8, 9 and 10 (APOLOGIX caspase detection kit, Cell Tech Inc., Minneapolis, Minn.). […] Cells were collected, washed once, resuspended in Perm/wash buffer and analyzed by FACS for PE positive population. […]

HeLa cells = assay: TNFα-induced mitochondrial depolarization in Annexin V-separated cells
From the text: FIG. 7: Endogenous Expression of IG20 variants and Susceptibility To TNF-Induced Apoptosis. (A) Magnetic Separation of Apoptotic and TNFα-resistant Cells. Apoptotic cells were magnetized and physically separated from TNFα-resistant cells using the Annexin V-conjugated microbeads, as described in Materials and Methods. mRNAs were then isolated from apoptotic and TNFα-resistant cells separately and were used in RT-PCR using IG20-specific primers F-1 and B-1. […] In contrast, marked increase in expression of IG20 with no expression of DENN-SV (the anti-apoptotic variant) is seen in apoptotic cells. (B) TNFα-Induced Mitochondrial Depolarization in apoptotic and TNFα-resistant cells. Cells in (A) were then assessed for mitochondrial depolarization. […] Bars represent averages from three wells for each group. The experiment was repeated at least three times and consistent results were obtained.
Cells were plated in 6-well plates at 1.2×10^5 in growth medium. Twenty four hours later, cells were either untreated or treated with 10 ng/ml TNF-α and 10 μg/ml cyclohexamide (CHX) for 6 hours. To assess the effects of TNFα and CHX treatment, cells were either stained with 100 nM tetramethylrhodamine ethyl ester (TMRE) (Molecular Probes, Eugene, Oreg.) for 10 minutes, harvested by trypsinization, washed once with ice-cold PBS and then subjected to FACS analysis, or were stained with either trypan blue and evaluated for viability using a light microscope, or with 1 μg/ml Hoechst 33342 (Sigma) for 10 minutes and evaluated for chromatin condensation in situ using a Diaphot 200 inverted microscope with an epifluorescence attachment (Nikon, Melville, N.Y.).
To separate cells that were undergoing apoptosis, or resistant to apoptosis upon TNFα treatment, the Annexin V microbeads (Miltenyi Biotec, Inc.) were used according to manufacturer's protocol. Annexin V is a phospholipid-binding protein that recognizes phosphatidylserine on the surface of apoptotic cells. […]

[4] = tested on: HeLa-control, HeLa-IG20 and HeLa-DENN-SV cells; assay: Vinblastine-induced apoptosis, chromatin condensation by Hoechst staining; conditions: 0.05 μM vinblastine, Hoechst 24 hours after treatment
Protocol: (§3) FIG. 8: Effect of IG20 and DENN-SV on Cell Survival and Apoptosis of TransfectedCells after Vinblastine Treatment. (A) Cell survival after Vinblastine treatment. […] (B) Vinblastine-Induced apoptosis. Cells treated with 0.05 μM vinblastine were stained with Hoechst 24 hours after the treatment in order to determine the percentage of cells with condensed chromatin. P values were <0.05 for all test groups.
as §2
Cells were stained in situ with 1 μg/ml of Hoechst 33342 (Sigma, St. Louis, Mo.) in DMEM for 10 minutes at 37° C. Chromatin condensation was then visualized in situ using a Diaphot 200 inverted microscope with an epifluorescence attachment (Nikon, Inc., Melville, N.Y.). 10 different fields were randomly chosen to determine the average number of cells with condensed chromatin (apoptotic) as compared to live cells.

[5] = tested on: HeLa-control, HeLa-IG20 and HeLa-DENN-SV cells; assay: Cell survival (crystal violet colonies) after vinblastine treatment; conditions: dose of 0.05 ∝M, two weeks
Protocol: as §3, §2

Compound: COc1cc([C@@H]2c3cc4c(cc3[C@@H](O[C@@H]3O[C@@H]5CO[C@@H](C)O[C@H]5[C@H](O)[C@H]3O)[C@H]3COC(=O)[C@H]23)OCO4)cc(OC)c1O [etoposide]
- Colonies formed after etoposide treatment ([1]; HeLa-DENN-SV cells, 5 μM etoposide): 125 colonies
- Colonies formed after etoposide treatment ([1]; HeLa-DENN-SV cells, 20 μM etoposide): approximately 40 colonies
- Growth after etoposide treatment ([1]; HeLa-DENN-SV cells, 30 μM etoposide): able to grow
- Colonies formed after etoposide treatment ([1]; HeLa-IG20 cells, 5 μM etoposide, on average): 8 colonies
- Colonies formed after etoposide treatment ([1]; HeLa-IG20 cells, 20 μM etoposide): very few or no colonies
- Colonies formed after etoposide treatment ([1]; HeLa-control cells, 5 μM etoposide): 39 colonies
- Etoposide-induced apoptosis ([2]; HeLa-DENN-SV cells): noticeable resistance to etoposide-induced apoptosis
- Etoposide-induced apoptosis ([2]; HeLa-IG20 cells): did not show a marked increase in susceptibility to apoptosis
- Cell division as indicated by CFDA staining ([3]; DENN-SV cells): 36%
- Cell division as indicated by CFDA staining ([3]; HeLa-IG20 cells): 9%
- Cell division as indicated by CFDA staining ([3]; control cells): 24%

Compound: TNFα
- Increase in cells undergoing apoptosis, HeLa IG20 versus control cells (HeLa IG20 cells): two-fold increase
- Relative increase in caspase-3 activation, HeLa IG20 relative to control cells (caspase-3): less than two fold increase
- Apoptosis (cells with depolarized mitochondria) (HeLa cells; Annexin V-negative HeLa cells after TNFα and CHX): 8%
- Apoptosis (cells with depolarized mitochondria) (HeLa cells; Annexin V-positive HeLa cells after TNFα and CHX): 93%
- Apoptosis (cells with depolarized mitochondria) (HeLa cells; unseparated control HeLa cells): 35%

Compound: CC[C@]1(O)C[C@@H]2CN(CCc3c([nH]c4ccccc34)[C@@](C(=O)OC)(c3cc4c(cc3OC)N(C)[C@H]3[C@@](O)(C(=O)OC)[C@H](OC(C)=O)[C@]5(CC)C=CCN6CC[C@]43[C@@H]65)C2)C1 [vinblastine]
- Vinblastine-induced apoptosis as measured by chromatin condensation ([4]; HeLa-DENN-SV cells): 21%
- Vinblastine-induced apoptosis as measured by chromatin condensation ([4]; HeLa-IG20 cells): 70%
- Vinblastine-induced apoptosis as measured by chromatin condensation ([4]; HeLa-controls): 46%
- Cell survival (colonies) after vinblastine treatment ([5]; HeLa-DENN-SV cells): not significantly affected
- Cell survival (colonies) after vinblastine treatment ([5]; HeLa-IG20 cells): only a few HeLa-IG20 colonies detectable
- Cell survival (colonies) after vinblastine treatment ([5]; HeLa-control cells): intermediary response

— patent publication US8722637B2, “Methods and compositions of IG20 and DENN-SV splice variants” (The Board of Trustees of the University of Illinois, priority 2003, dated 2014)
